Values of other authors, collected in patent US20070219250A1, “Pharmaceutical Compositions of Nateglinide” (priority 2003, published 2007).

Structure (SMILES): CC(C)[C@H]1CC[C@H](C(=O)N[C@H](Cc2ccccc2)C(=O)O)CC1 [Nateglinide]
- Solubility in water: insoluble
